From patent US9079866B2, “Flap modulators” (JANSSEN PHARMACEUTICA NV, priority 2013, dated 2015)
Counter-ions that a name gives are not always drawn. Like-named read-outs stand apart in the source and are kept apart here.

Legend:
[1] = tested on: leukotriene pathway in human whole blood (LTB4 levels); assay: Human whole blood assay (A23187-stimulated LTB4); type: cell-based; details: Homo sapiens, read-out: LTB4 IC50 1:1
Summary of the method: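 Blood (heparin) diluted 1:1 RPMI; compound pre-incubation 15 min, 37° Celsius; A23187 7 μg/mL, 30 min, 37° Celsius; plasma LTB4 by commercial kit. IC50 via 4-parameter equation.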

human FLAP = human FLAP (Homo sapiens (Human), UniProt P20292); assay: FLAP binding assay (HTRF format)
Sequence of human FLAP (P20292 whole entry): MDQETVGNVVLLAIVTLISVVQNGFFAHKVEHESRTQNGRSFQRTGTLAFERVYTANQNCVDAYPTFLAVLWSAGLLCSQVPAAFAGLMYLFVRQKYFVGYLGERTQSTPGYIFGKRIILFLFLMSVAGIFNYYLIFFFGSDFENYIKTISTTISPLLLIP
Summary of the method: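 HTRF ratio read-out; two independent plates, samples in duplicate on each, values averaged across plates.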

[2] = human whole blood diluted 1:1 in RPMI, A23187-stimulated LTB4
[3] = human FLAP wild type, HTRF format, average of two plates, duplicates
[4] = human whole blood diluted 1:1, A23187-stimulated

Compound | IC50 [1, 2] [nM] | Ki (human FLAP; [3]) [nM] | IC50 [1, 4] [nM] | Ki (human FLAP; wild type FLAP, HTRF format) [nM] | Ki (human FLAP; read-out: FLAP Binding wild type HTRF Ki) [nM]
C[C@H](NS(=O)(=O)c1ccccc1-c1ccc(-c2cnc(N)nc2)c(F)c1)C(=O)OC(C)(C)C [Example 307, tert-Butyl N-{[4′-(2-aminopyrimidin-5-yl)-3′-fluorobiphenyl-2-yl]sulfonyl}-L-alaninate] | 416 | 4 | – | – | –
Nc1nccc(Oc2ccccc2-c2ccc(-c3cnc4[nH]ccc4c3)c(F)c2)n1 [Example 523, 4-{[3′-Fluoro-4′-(1H-pyrrolo[2,3-b]pyridin-5-yl)biphenyl-2-yl]oxy}pyrimidin-2-amine] | – | – | 25 | 1 | –
CC1(NS(=O)(=O)c2ccccc2-c2ccc(-c3cnc(N)cn3)c(F)c2)COC1 [Example 173, 4′-(5-Aminopyrazin-2-yl)-3′-fluoro-N-(3-methyloxetan-3-yl)biphenyl-2-sulfonamide] | 17 | 1 | – | – | –
CC(=O)N1CCC(S(=O)(=O)c2ncccc2-c2ccc(-c3cnc(N)nc3)c(F)c2)CC1 [Example 815] | – | – | 128 | 256 | –
CC(C)(C)NS(=O)(=O)c1ccccc1-c1ccc(-c2cnc(N)cn2)cc1 [Example 571, 4′-(5-Aminopyrazin-2-yl)-N-tert-butylbiphenyl-2-sulfonamide] | – | – | 91 | 2 | –
NC1CCN(S(=O)(=O)c2ccccc2-c2ccc(-c3cnc4[nH]ccc4n3)c(F)c2)CC1 [Example 381, 1-{[3′-Fluoro-4′-(5H-pyrrolo[2,3-b]pyrazin-2-yl)biphenyl-2-yl]sulfonyl}piperidin-4-amine] | 141 | 5 | – | – | –
N#Cc1nc(N)cnc1-c1ccc(-c2ccc(C(F)(F)F)cc2Oc2ncccn2)cc1F [Example 746, 6-Amino-3-[3-fluoro-2′-(pyrimidin-2-yloxy)-4′-(trifluoromethyl)biphenyl-4-yl]pyrazine-2-carbonitrile] | – | – | 137 | 2 | –
Nc1ncc(-c2ccc(-c3cccnc3S(=O)(=O)CC3CCOCC3)cc2F)cn1 [Example 823, 5-(2-Fluoro-4-(2-(((tetrahydro-2H-pyran-4-yl)methyl)sulfonyl)pyridine-3-yl)pyrimidin-2-amine formic acid salt] | – | – | 95.1 | 192 | –
Nc1cnc(-c2ccc(-c3ccccc3C(=O)N3CCS(=O)(=O)CC3)cc2F)cn1 [Example 509, 5-{2′-[(1,1-Dioxidothiomorpholin-4-yl)carbonyl]-3-fluorobiphenyl-4-yl}pyrazin-2-amine] | – | – | 93 | 147 | –
CC(C)(C)S(=O)(=O)c1ncccc1-c1ccc(-c2cnc(N)nc2)c(F)c1 [Example 811, 5-(4-(2-(tert-Butylsulfonyl)pyridin-3-yl)-2-fluorophenyl)pyrimidin-2-amine formic acid salt] | – | – | 541 | – | 315
Nc1cnc(-c2ccc(-c3ccccc3S(=O)(=O)NCC3(O)CCCCC3)cc2F)cn1 [Example 99, 4′-(5-Aminopyrazin-2-yl)-3′-fluoro-N-[(1-hydroxycyclohexyl)methyl]biphenyl-2-sulfonamide] | 30 | 2 | – | – | –
C[C@H](O)CNS(=O)(=O)c1ccccc1-c1ccc(-c2cnc(N)cn2)c(F)c1 [Example 98, (S)-4′-(5-aminopyrazin-2-yl)-3′-fluoro-N-(2-hydroxypropyl)-[1,1′-biphenyl]-2-sulfonamide] | 39 | 8 | – | – | –
Nc1cc(Oc2ccccc2-c2ccc(-c3cnc(N)nc3)c(F)c2)ccn1 [Example 639, 5-{2′-[(2-Aminopyridin-4-yl)oxy]-3-fluorobiphenyl-4-yl}pyrimidin-2-amine] | – | – | 67 | 7.2 | –
Nc1ncc(-c2ccc(-c3ccccc3S(=O)(=O)Cc3nc4ccccc4c(=O)[nH]3)cc2F)cn1 [Example 317, 2-(((4′-(2-Aminopyrimidin-5-yl)-3′-fluoro-[1,1′-biphenyl]-2-yl)sulfonyl)methyl)quinazolin-4(3H)-one] | > 10000 | 335 | – | – | –
Nc1ncc(-c2ccc(-c3ccccc3S(=O)(=O)CCCS(=O)(=O)C3CCCCC3)cc2F)cn1 [Example 319, 5-(2′-{[3-(Cyclohexylsulfonyl)propyl]sulfonyl}-3-fluorobiphenyl-4-yl)pyrimidin-2-amine] | 3260 | 204 | – | – | –
C[C@@H]1CNCCN1S(=O)(=O)c1ccccc1-c1ccc(-c2cnc(N)nc2)c(F)c1 [Example 247, 5-(3-Fluoro-2′-{[(2R)-2-methylpiperazin-1-yl]sulfonyl}biphenyl-4-yl)pyrimidin-2-amine] | 197 | 89 | – | – | –
Nc1cnc(-c2ccc(-c3ccccc3S(=O)(=O)N3CCCC(F)(F)C3)cc2F)cn1 [Example 50, 5-{2′-[(3,3-Difluoropiperidin-1-yl)sulfonyl]-3-fluorobiphenyl-4-yl}pyrazin-2-amine] | 15 | 1 | – | – | –
Nc1ncc(-c2ccc(-c3ccccc3S(=O)(=O)N3CCC[C@@H]3CO)cc2F)cn1 [Example 276, [(2R)-1-{[4′-(2-Aminopyrimidin-5-yl)-3′-fluorobiphenyl-2-yl]sulfonyl}pyrrolidin-2-yl]methanol trifluoroacetic acid salt] | 325 | 23 | – | – | –
Nc1cnc(-c2ccc(-c3ccccc3S(=O)(=O)N(C3CCOCC3)C3CC3)cc2F)cn1 [Example 140, 4′-(5-Aminopyrazin-2-yl)-N-cyclopropyl-3′-fluoro-N-(tetrahydro-2H-pyran-4-yl)biphenyl-2-sulfonamide] | 11 | 1 | – | – | –
Nc1cnc(-c2ccc(-c3ccccc3Sc3ncccn3)cc2F)cn1 [Example 213, 5-[3-Fluoro-2′-(pyrimidin-2-ylsulfanyl)biphenyl-4-yl]pyrazin-2-amine hydrochloride] | 25 | 2 | – | – | –
Nc1cnc(-c2ccc(-c3ccccc3CSc3ccc(N)nn3)cc2F)cn1 [Example 240, 6-(((4′-(5-Aminopyrazin-2-yl)-3′-fluoro-[1,1′-biphenyl]-2-yl)methyl)thio)pyridazin-3-amine hydrochloride] | 21 | 2 | – | – | –
Nc1cnc(-c2ccc(-c3ccccc3S(=O)(=O)NCC3CC3)cc2F)cn1 [Example 90, 4′-(5-Aminopyrazin-2-yl)-N-(cyclopropylmethyl)-3′-fluorobiphenyl-2-sulfonamide] | 12 | 1 | – | – | –
COC[C@H](C)NS(=O)(=O)c1ccccc1-c1ccc(-c2cnc(N)cn2)c(F)c1 [Example 175, (S)-4′-(5-Aminopyrazin-2-yl)-3′-fluoro-N-(1-methoxypropan-2-yl)-[1,1′-biphenyl]-2-sulfonamide] | 17 | 1 | – | – | –
N#Cc1nc(N)cnc1-c1ccc(-c2ccccc2S(=O)(=O)NCCO)cc1F [Example 706, 4′-(5-Amino-3-cyanopyrazin-2-yl)-3′-fluoro-N-(2-hydroxyethyl)biphenyl-2-sulfonamide] | – | – | 362 | 79.6 | –
CC(C)(O)Cn1cc(-c2ccccc2-c2ccc(-c3cnc(N)cn3)c(F)c2)cn1 [Example 851, 1-{4-[4′-(5-Aminopyrazin-2-yl)-3′-fluorobiphenyl-2-yl]-1H-pyrazol-1-yl}-2-methylpropan-2-ol] | – | – | 359 | 32.6 | –
CC(C)(C)OC(=O)NCCNS(=O)(=O)c1ccccc1-c1ccc(-c2cnc(N)cn2)c(F)c1 [Example 151, tert-Butyl [2-({[4′-(5-aminopyrazin-2-yl)-3′-fluorobiphenyl-2-yl]sulfonyl}amino)ethyl]carbamate] | 114 | 1 | – | – | –
